Converted amounts (≈) assume the structure as drawn. Where two headings read alike, the source gives them in different places. Values belong to the compound of their own block, whether it stands above or below them.
Key:
β2-Adrenoceptor = target: T1, β2-Adrenoceptor (Rattus norvegicus, UniProt P10608); assay: β2-Adrenoceptor stimulating effect: spontaneous contractions of isolated pregnant rat uterus (Magnus method); type: cell-based; details: isolated uterus of pregnant SD rats (day 21), cumulative addition every 5 minutes, 37° C.; read-out: 50% inhibitory drug concentration (EC50 value), uterine contractions
T1 construct: The uteri of pregnant SD rats (pregnancy day of 21) were isolated; from tissue; host or cells: isolated uterus (longitudinal myometrial preparations) of pregnant SD rats, day 21
Method: The uteri of pregnant SD rats (pregnancy day of 21) were isolated, and longitudinal preparations of approximately 15 mm in length and approximately 5 mm in width free from the basal plate were prepared. The experiment was conducted according to the Magnus method. The preparations with a tension of 1 g were exposed to Locke-Ringer solution maintained at 37° C. and gassed with a mixture of 95% of oxygen and 5% of carbon dioxide. Spontaneous contractions of the myometrium were isometrically measured with a force-displacement transducer and recorded by a rectigram. 2-[4-[2-[[(1S, 2R)-2-Hydroxy-2-(4-hydroxyphenyl)-1-methylethyl]amino]ethyl]-phenoxy]acetic acid was cumulatively added to the Magnus bath every 5 minutes. The drug efficacy was evaluated by comparing the sum of uterine contractions during 5 minutes after the addition of the drug with that during 5 minutes before the addition of the drug which was expressed as 100%.

[1] = Hygroscopicity (moisture absorption on standing under relative humidity); type: physicochemical
Method: (§1) As examples of crystalline polymorphs other than the crystalline polymorph of the present invention, there are the crystalline polymorph (crystalline form γ) having strong diffraction peaks (diffraction angle: 2θ±0.1°) at 18.1, 19.7, 20.3, 21.2 and 22.4° and the crystalline polymorph (crystalline form […]) having strong diffraction peaks (diffraction angle: 2θ±0.1°) at 10.2, 13.2, 17.6, 19.8 and 20.6° in powder X-ray diffraction pattern. […] Thus, the crystalline polymorph of the present invention has an excellent low hygroscopicity and good storage. […] Thus, the crystalline polymorph of the present invention is favorable to oral administration and has a favorable efficiency in preparing liquid preparations such as injections.

Solubility in water = type: physicochemical; details: in water (37° C.)
Method: as §1

[2] = Drug absorption on oral administration; type: in vivo; details: orally administered
Method: as §1

T1 sequence (P10608 whole entry): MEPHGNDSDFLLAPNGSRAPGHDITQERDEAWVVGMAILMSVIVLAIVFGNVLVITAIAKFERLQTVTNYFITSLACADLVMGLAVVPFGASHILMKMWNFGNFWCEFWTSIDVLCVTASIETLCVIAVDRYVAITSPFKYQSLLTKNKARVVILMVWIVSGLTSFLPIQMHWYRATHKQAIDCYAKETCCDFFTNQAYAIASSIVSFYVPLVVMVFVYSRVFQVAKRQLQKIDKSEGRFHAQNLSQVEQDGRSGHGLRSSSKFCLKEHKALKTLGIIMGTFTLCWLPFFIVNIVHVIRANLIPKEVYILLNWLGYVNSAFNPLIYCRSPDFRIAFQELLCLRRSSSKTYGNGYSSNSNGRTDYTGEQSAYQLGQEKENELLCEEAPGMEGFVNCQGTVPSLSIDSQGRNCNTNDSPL

- EC50 (β2-Adrenoceptor): 31 nM
Compound: C[C@H](NCCc1ccc(OCC(=O)O)cc1)[C@H](O)c1ccc(O)cc1 [2-[4-[2-[[(1S,2R)-2-hydroxy-2-(4-hydroxy-phenyl)-1-methylethyl]amino]ethyl]phenoxy]acetic acid]

- moisture absorption (hygroscopicity) ([1]; allowed to stand for 10 days under relative humidities of 51-93%): does not absorb moisture
- solubility (Solubility in water; read-out: solubility): 2700 µg/mL (≈ 7.82 mM)
- drug absorption [2]: excellent drug absorption
Compound: CC(NCCc1ccc(OCC(=O)O)cc1)C(O)c1ccc(O)cc1 [crystalline form α, 2-[4-[2-[[(1S,2R)-2-Hydroxy-2-(4-hydroxyphenyl)-1-methyl-ethyl]amino]ethyl]phenoxy]acetic Acid (Crystalline Form α)]

Compound: C[C@H](NCCc1ccc(OCC(=O)O)cc1)[C@H](O)c1ccc(O)cc1 [crystalline form γ, 2-[4-[2-[[(1S,2R)-2-Hydroxy-2-(4-hydroxyphenyl)-1-methyl-ethyl]amino]ethyl]phenoxy]acetic Acid (Crystalline Form γ)]
- moisture absorption (hygroscopicity) ([1]; conditions not given): easily absorb moisture to convert into their hydrates

- solubility (Solubility in water): 1800 µg/mL (≈ 5.21 mM)
Compound: C[C@H](NCCc1ccc(OCC(=O)O)cc1)[C@H](O)c1ccc(O)cc1 [crystalline form δ, 2-[4-[2-[[(1S,2R)-2-Hydroxy-2-(4-hydroxyphenyl)-1-methyl-ethyl]amino]ethyl]phenoxy]acetic Acid (Crystalline Form δ)]

— patent publication US6376707B1, “Crystal polymorphism of aminoethylphenoxyacetic acid derivative” (Kissei Pharmaceutical Co., Ltd., priority 1999, dated 2002)
